In US11384078B2, “5,6-fused-bicyclic compounds and compositions for the treatment of parasitic diseases” (NOVARTIS AG, priority 2017, dated 2022):

Legend:
Assay type in all cases: cell-based
[1] = tested on: Trypanosoma brucei brucei (Lister 427) strain; test: Assay for growth inhibition against Trypanosoma brucei brucei (Cell TiterGlo ATP luminescence); conditions: Trypanosoma brucei, T. brucei brucei (Lister 427); read-out: T. Brucei (HAT) EC50
Description: Assay for Growth Inhibition Against Trypanosoma brucei brucei
The proliferation is quantified by the addition of Cell TiterGlo® (Promega®) a luminescent cell viability assay that measures the number of viable cells in culture based on the quantification of cellular ATP amount, which is an indicator of metabolically active cells.
Trypanosoma brucei brucei (Lister 427) strain was grown in Hirumi 9 (HMI-9) media supplemented with 10% v/v fetal bovine serum (FBS) and 10% v/v serum plus. For measurement of cell proliferation inhibition, test compounds were three fold serially diluted in duplicates to 384-well white plates, resulting in 10 dilutions for each compound. A volume of 40 μL of T. b. brucei culture (10,000 parasites/mL) was added to each well, and the assay plates were incubated at 37° C. for 2 days in a CO2 incubator. Growth inhibition was monitored by measuring ATP levels, which, is used as a surrogate marker for growth. Relative luminescence units were measured using TECAN® M1000 after 30 min of adding 40 μl of Cell TiterGlo®. IC50 values were determined by analyzing the data using HELIOS software. IC50 is defined as the lowest concentration of the compound that inhibited 50% growth of the T. b. brucei wild type strain compared to untreated controls.

[2] = tested on: Trypanosoma cruzi amastigotes cultured in 3T3 fibroblast cells; test: Assay for growth inhibition of kinetoplastid parasite Trypanosoma cruzi (beta-galactosidase Tulahuen strain, CPRG readout); conditions: Trypanosoma cruzi, Fibroblast, T. cruzi amastigotes in 3T3 fibroblast cells; read-out: Buckner infectious T. cruzi EC50
Excerpt: Assay for Growth Inhibition of Kinetoplastid Parasite Trypanosoma cruzi
Compounds of the invention can be assayed for inhibitor activity against Trypanosoma cruzi amastigotes cultured in 3T3 fibroblast cells. The assay is done using the mammalian stage (amastigotes) of T. cruzi that replicates in the intracellular space of host cells. The host cells are initially infected with the culture-derived trypomastigotes that rapidly invade and then divide as amastigotes. The protocol uses the Tulahuen strain of T. cruzi that has been engineered to express the E. coli beta-galactosidase gene (Lac-Z) (Antimicr. Agents Chemoth. 40:2592, 1996). This allows for a colorimetric readout by using the substrate CPRG and an absorbance plate reader.
3T3 fibroblast cells are re-suspended in RPMI-1640 medium without phenol red medium supplemented with 10% FBS (heat inactivated), 100 μg/ml penicillin, and 100 μg/ml streptomycin. Forty μL of suspension (1,000 cells) is dispensed into 384-well plates and incubated overnight at 37° C. temperature and in atmosphere containing 5% CO2. The following day, 100 nL of compounds of the invention in DMSO are added to plate wells containing 3T3 cells. At the same time control compounds (benznidazole and nifurtimox) and DMSO are added to plates to serve as the positive and negative controls, respectively. After that, 10 μL of media containing 10,000 T. cruzi trypomastigotes are added to each plate well and plates are placed back into incubators. After 6 day incubation, 10 μL of reagent solution (0.6 mM CPRG, 0.6% NP-40 in PBS) is added to plates and incubated at room temperature for 2 hours. Absorbance is then measured on SpectraMax GEMINI fluorimeter to determine relative number of T. cruzi cells present in each plate well.

[3] = tested on: Leishmania donovani axenic amastigote; test: In vitro assay for growth inhibition of Leishmania donovani axenic amastigote (Cell TiterGlo luminescence); conditions: Leishmania donovani, L. donovani axenic amastigotes in vitro; read-out: L. donovani amastigotes EC50
Description: Abbreviations as used herein below have the corresponding meaning: • CPRG Chlorophenol Red-P-D-galactopyranoside • ATP adenosine triphosphate • BSA bovine serum albumin • DMSO dimethyl sulfoxide • FBS fetal bovine serum • PBS phosphate buffered saline • RPMI 1640 Rosweli Park Memorial Institute (RPMI) 1640 medium In Vitro Assay for Growth Inhibition of Leishmania donovani Axenic Amastiqote
Leishmania donovani axenic amastigote parasites are grown at 37° C., 5% CO2 in media made of RPMI 1640, 4 mM L-glutamine, 20% heat inactivated FBS, 100 units/ml of penicillin and 100 μg/ml of streptomycin, 23 μM folic acid, 100 μM adenosine, 22 mM D-glucose, 25 mM MES. The pH of media is adjusted to 5.5 at 37° C. using HCl. 20 μL of media is first dispensed into 384 well plates and 100 nL of the compounds of invention in DMSO are added to the plate wells. At the same time control compounds and DMSO are added to plates to serve as the positive and negative controls, respectively. 40 μL of parasite culture (9600 parasites) are then added to the plate wells. The plates are then placed into incubators. After two days incubation, 20 μL of Cell TiterGlo® (Promega) is added to the plate wells. The luminescence signal of each well is measured using the Envision reader (Perkin Elmer).

| Compound | EC50 [1] [µM] | EC50 [2] [µM] | EC50 [3] [µM] |
| --- | --- | --- | --- |
| Cc1cccnc1-c1cnc2nn(-c3cc(NC(=O)N4CC(F)(F)C4)ccc3F)cc2c1 [Compound 5, 3,3-difluoro-N-(4-fluoro-3-(5-(3-methylpyridin-2-yl)-2H-pyrazolo[3,4-b]pyridin-2-yl)phenyl)azetidine-1-carboxamide] | < 0.023 | 0.0053 | 0.0036 |
| Cc1cccnc1-c1cnc2nn(-c3cc(NC(=O)N4CC(F)C4)ccc3F)cc2c1 [Compound 6, 3-fluoro-N-(4-fluoro-3-(5-(3-methylpyridin-2-yl)-2H-pyrazolo[3,4-b]pyridin-2-yl)phenyl)azetidine-1-carboxamide] | < 0.023 | 0.0099 | 0.012 |
| O=C(Nc1ccc(F)c(-n2cc3cc(-c4ccccn4)cnc3n2)c1)c1ccc(F)o1 [Compound 11, 5-fluoro-N-(4-fluoro-3-(5-(pyridin-2-yl)-2H-pyrazolo[3,4-b]pyridin-2-yl)phenyl)furan-2-carboxamide] | > 50 | 0.001 | 0.0028 |
| O=C(Nc1ccc(F)c(-n2cc3cc(CC4CCC4)cnc3n2)c1)N1CC(F)C1 [Compound 26, N-{3-[5-(cyclobutylmethyl)-2H-pyrazolo[3,4-b]pyridin-2-yl]-4-fluorophenyl}-3-fluoroazetidine-1-carboxamide] | < 0.023 | 0.012 | 0.0096 |
| O=C(Nc1ccc(F)c(-n2cc3cc(C4CCC4)cnc3n2)c1)N1CC(F)(F)C1 [Compound 31, N-(3-{5-cyclobutyl-2H-pyrazolo[3,4-b]pyridin-2-yl}-4-fluorophenyl)-3,3-difluoroazetidine-1-carboxamide] | < 0.023 | 0.0083 | 0.0062 |
| O=C(Nc1ccc(F)c(-n2cc3cc(CC4CCC4)cnc3n2)c1)N1CC(F)(F)C1 [Compound 37, N-{3-[5-(cyclobutylmethyl)-2H-pyrazolo[3,4-b]pyridin-2-yl]-4-fluorophenyl}-3,3-difluoroazetidine-1-carboxamide] | < 0.023 | 0.026 | 0.023 |
| O=C(Nc1ccc(F)c(-n2cc3cc(C4CCC4)cnc3n2)c1)N1CC[C@@H](F)C1 [Compound 45, (3R)-N-(3-{5-cyclobutyl-2H-pyrazolo[3,4-b]pyridin-2-yl}-4-fluorophenyl)-3-fluoropyrrolidine-1-carboxamide] | < 0.023 | 0.028 | 0.04 |
| O=C(Nc1ccc(F)c(-n2cc3cc(CC4CCC4)cnc3n2)c1)N1CC[C@@H](F)C1 [Compound 51, (3R)-N-{3-[5-(cyclobutylmethyl)-2H-pyrazolo[3,4-b]pyridin-2-yl]-4-fluorophenyl}-3-fluoropyrrolidine-1-carboxamide] | < 0.023 | 0.019 | 0.015 |
| O=C(Nc1ccc(F)c(-n2cc3cc(CC4CCC4)cnc3n2)c1)c1ccco1 [Compound 62, N-{3-[5-(cyclobutylmethyl)-2H-pyrazolo[3,4-b]pyridin-2-yl]-4-fluorophenyl}furan-2-carboxamide] | < 0.023 | 0.0051 | 0.039 |
| CC(C)c1cnc2nn(-c3cc(NC(=O)C4(C)CCCO4)ccc3F)cc2c1 (stereo not drawn) [Compound 77, N-{4-fluoro-3-[5-(propan-2-yl)-2H-pyrazolo[3,4-b]pyridin-2-yl]phenyl}-2-methyloxolane-2-carboxamide] | 8.5 | 6.5 | 17 |
| CC(C)c1cnc2nn(-c3cc(NC(=O)N4CCC4)ccc3F)cc2c1 [Compound 100, N-{4-fluoro-3-[5-(propan-2-yl)-2H-pyrazolo[3,4-b]pyridin-2-yl]phenyl}azetidine-1-carboxamide] | < 0.023 | 0.0042 | 0.0092 |
| CC(C)c1cnc2nn(-c3cc(NC(=O)c4ccc(CN(C)C)o4)ccc3F)cc2c1 [Compound 111, 5-[(dimethylamino)methyl]-N-{4-fluoro-3-[5-(propan-2-yl)-2H-pyrazolo[3,4-b]pyridin-2-yl]phenyl}furan-2-carboxamide] | 10 | 2.9 | 8.7 |
| CC(C)c1cnc2nn(-c3cc(NC(=O)c4ccc(C#N)o4)ccc3F)cc2c1 [Compound 112, 5-cyano-N-{4-fluoro-3-[5-(propan-2-yl)-2H-pyrazolo[3,4-b]pyridin-2-yl]phenyl}furan-2-carboxamide] | < 0.023 | 0.0028 | 0.016 |
| Cc1cc(C(=O)Nc2ccc(F)c(-n3cc4cc(C(C)C)cnc4n3)c2)oc1C [Compound 114, N-{4-fluoro-3-[5-(propan-2-yl)-2H-pyrazolo[3,4-b]pyridin-2-yl]phenyl}-4,5-dimethylfuran-2-carboxamide] | 0.054 | 0.045 | 0.31 |
| Cc1ccoc1C(=O)Nc1ccc(F)c(-n2cc3cc(C(C)C)cnc3n2)c1 [Compound 115, N-{4-fluoro-3-[5-(propan-2-yl)-2H-pyrazolo[3,4-b]pyridin-2-yl]phenyl}-3-methylfuran-2-carboxamide] | < 0.023 | 0.014 | 0.15 |
| CC(C)c1cnc2nn(-c3cc(NC(=O)c4cc5ccccc5o4)ccc3F)cc2c1 [Compound 116, N-{4-fluoro-3-[5-(propan-2-yl)-2H-pyrazolo[3,4-b]pyridin-2-yl]phenyl}-1-benzofuran-2-carboxamide] | 1.5 | 0.88 | 3.1 |
| CC(C)c1cnc2nn(-c3cc(NC(=O)C4(C)CC(F)(F)C4)ccc3F)cc2c1 [Compound 117, 3,3-difluoro-N-{4-fluoro-3-[5-(propan-2-yl)-2H-pyrazolo[3,4-b]pyridin-2-yl]phenyl}-1-methylcyclobutane-1-carboxamide] | 13 | 5.5 | 9.3 |
| CC(C)c1cnc2nn(-c3cc(NC(=O)C4CC(F)(F)C4)ccc3F)cc2c1 [Compound 118, 3,3-difluoro-N-{4-fluoro-3-[5-(propan-2-yl)-2H-pyrazolo[3,4-b]pyridin-2-yl]phenyl}cyclobutane-1-carboxamide] | 1.4 | 1.1 | 0.69 |
| COC(=O)C12CC(C(=O)Nc3ccc(F)c(-n4cc5cc(C(C)C)cnc5n4)c3)(C1)C2 [Compound 120, methyl 3-({4-fluoro-3-[5-(propan-2-yl)-2H-pyrazolo[3,4-b]pyridin-2-yl]phenyl}carbamoyl)bicyclo[1.1.1]pentane-1-carboxylate] | 1.8 | 4.3 | 5.2 |
| CC(C)c1cnc2nn(-c3cc(NC(=O)N4CC(F)C4)ccc3F)cc2c1 [Compound 156, 3-fluoro-N-{4-fluoro-3-[5-(propan-2-yl)-2H-pyrazolo[3,4-b]pyridin-2-yl]phenyl}azetidine-1-carboxamide] | < 0.023 | 0.0051 | 0.0093 |
| C[C@H]1CN(c2cnc3nn(-c4cc(NC(=O)N5CC(F)C5)ccc4F)cc3c2)C[C@H](C)O1 [Compound 177, N-(3-{5-[(2S,6S)-2,6-dimethylmorpholin-4-yl]-2H-pyrazolo[3,4-b]pyridin-2-yl]-4-fluorophenyl)-3-fluoroazetidine-1-carboxamide] | < 0.023 | 0.055 | 0.027 |
